Data set [1] concerns MLC-P. Description: MLC-P by urea/glycerol gel immunoblotting in Mm5MT cells. Type of data set: cell-based, mouse. Conditions: 10 μM ML-7, 30 μM etoposide or both, 16 h.
Procedure: MLC-P protein was measured by urea/glycerol gel immunoblotting. Mm5MT or MLL cancer cells in 6-well plates were treated with ML-7 (10 or 5 μM, respectively) or etoposide (30 μM) or combination of two at indicated concentrations for 16 h. MLC-P in cancer cells was then quantified by the urea/glycerol gel-immunoblotting method. Briefly, cancer cells were fixed in 10% trichloroacetic acid (TCA) containing 10 mM dithiothreitol (DTT). Cell pellets were washed four times with acetone and protein was extracted by dissolving in buffer containing 9 M urea, 10 mM DTT and 20 mM Tris, pH 8.0. […] This antibody recognizes the unphosphorylated and phosphorylated forms of MLC20. Immunoreactive bands were visualized using enhanced chemiluminescence (ECL) detection reagents (Amersham Pharmacia Biotech, Piscataway, N.J.).
MLC-P was measured by urea/glycerol gel-immunoblotting as described above. Un and P identify unphosphorylated and phosphorylated MLC20, respectively. […] This experiment was repeated four times and the data from a representative experiment is shown.
Data set [2] has as its system MLC-P. Description: MLC-P by urea/glycerol gel immunoblotting in MLL cells. Type of data set: cell-based, rat. The conditions noted are these: 5 μM ML-7, 30 μM etoposide or both.
In data set [3] the test system is precancerous mammary alveolar lesions (MAL). The experiment in a line: Mouse mammary gland organ culture, DMBA-induced mammary alveolar lesions. Type of data set: cell-based, Balb/c mice. The method, then: Mammary glands obtained from young Balb/c mice that are exposed to 7,12-dimethylbenz(a)anthracene (DMBA) for 24 h in culture to form precancerous lesions in 24 days. The procedure has been successfully used to determine efficacy of chemopreventive agents and is described in detail elsewhere. (Mehta et al. PPARγ ligand and retinoids prevent preneoplastic mammary lesions. J. Natl Cancer Instit 2000; 92:418-23). Briefly, 70 mammary glands from 35 Balb/c mice were divided into seven groups of 10 glands each and incubated in serum-free medium containing insulin, prolactin (5 μg/ml each), aldosterone and hydrocortisone (1 μg/ml each) for 10 days. DMBA (2 μg/ml) was included in the medium for 24 h on day 3. […] The glands were fixed in formalin and stained with alum carmine and evaluated for MAL. Percent inhibition was calculated by comparing the incidence in the control glands with the treated groups.
Mammary glands obtained from young Balb/c mice were exposed to DMBA as described above and MAL formation was monitored. […] (Mehta et al. PPARγ ligand and retinoids prevent preneoplastic mammary lesions. J. Natl Cancer Instit 2000; 92:418-23) In the present study, we evaluated effects of etoposide and ML-7 at 0.1, 1.0 and 10.0 μM concentrations on the development of MAL in organ culture. […] Percentage inhibition was calculated by comparing the incidence in the control glands with the treated groups. […]

The test system of another data set is Mm5MT cells. On the procedure:
To investigate the anticancer activity of ML-7 in vivo, Mm5MT cells grown in culture were harvested immediately before injection into syngeneic MMTV-C3H/HeN mice. Cells were washed to remove serum and 10^6 cells were resuspended in 100 μl of serum-free DMEM. Healthy, MMTV-free female mice (14-20 weeks old) were anesthetized with ether and 10^6 cells were injected subcutaneously into the right flank. The mice were randomly divided into four groups of five mice each, and treated with vehicle, ML-7, etoposide or ML-7 plus etoposide. […] To deliver ML-7, a small horizontal incision was made in the interscapular area and a 200 μl osmotic pump (Alzet, Cupertino, Calif.) filled with either 27 mM ML-7 in 50% DMSO or 50% DMSO (vehicle control) was implanted and the wound closed. When given, 25 mg/kg etoposide was injected intraperitoneally on the first 3 days of every week for 4 weeks (days 7-9, 14-16, 21-23 and 28-30). The mice were sacrificed with ether after 4 weeks of drug administration and tumors were removed, weighed and processed for analysis.
Excised tumors were gently patted dry and weighed using a Mettler digital balance. Tumors were sectioned into 2 mm slices, fixed in 10% neutral buffered formalin, routinely processed and embedded in paraffin. […] Photomicrographs documenting the entire section were collected and areas of necrotic and viable tumor were determined using the manual tracing tools within MetaMorph 6.2 (Universal Imaging Corporation, Downingtown, Pa.).

For a further data set, the system named is MLL cells. The experiment in a line: MLL prostate tumor in Copenhagen rats, ML-7 and/or etoposide. Type of data set: in vivo. The method, then: To determine whether ML-7 stimulated the ability of etoposide to induce apoptosis and retard tumor growth more generally in tumor cells, the effects of ML-7 and etoposide on MLL prostate cancer cells were examined. MLL cells grown in culture were harvested and washed in serum-free Hank's buffer. The cells were suspended in 500 μl serum-free Hank's media and 10^6 cells were injected subcutaneously into the right flank of 12-week old male Copenhagen rats anesthetized with ether. […] Rats were randomly divided into four groups, five in each group, and received injections of ML-7 or vehicle via the jugular vein every 4 days for 2 weeks. ML-7 was used at the dose of 35 mg/kg. In mice receiving etoposide the drug was injected IP at the maximum tolerant dose of 50 mg/m^2 daily. Rats were sacrificed with ether 14 days after the start of drug treatment, and tumors removed, weighed and processed as described below.
To test the anticancer effect of ML-7 in a rat prostate cancer model, ML-7 or vehicle was administered by intrajugular injection, and etoposide administered by intraperitoneal injection. Male Copenhagen rats were inoculated with MLL cells as described above. […] The rats were sacrificed after 14 days of drug treatment and tumor weight and body weight were recorded.
Tumor sections were deparaffinized and rehydrated according to standard procedures. […]

As for `COc1cc([C@@H]2c3cc4c(cc3[C@@H](O[C@@H]3O[C@@H]5CO[C@@H](C)O[C@H]5[C@H](O)[C@H]3O)[C@H]3COC(=O)[C@H]23)OCO4)cc(OC)c1O` [etoposide], the MLC-P entry in the data set with MLC-P [1] is “decreased MLC-P”; in the data set with MLC-P [2] it was “smaller decrease in MLC-P”. Also, the MAL formation entry in data set [3] (0.1 μM) is reported as “did not affect MAL formation”. Moreover, the “inhibition of incidence of MAL formation compared to control” value in data set [3] (1 and 10 μM) was 40-46%. The “tumor necrosis (histology)” value with Mm5MT cells (FIG. 14B) is “Limited areas of necrosis”. For the same molecule, the tolerability entry in the data set on Mm5MT cells (mouse, in vivo) is listed as “without visible signs of discomfort”. In the data set with Mm5MT cells (single agents vs vehicle, only the etoposide effect statistically significant), the tumor growth entry is given as “decreased tumor growth”. The “TUNEL positive nuclei in tumors” value in the data set with MLL cells (300 cells, MLL tumors in rats (FIG. 17)) turned out to be 35.8%. In addition, the “decrease in tumor weight vs vehicle control” value in the data set on MLL cells (rats, ML-7 35 mg/kg jugular vein every 4 days, etoposide 50 mg/m^2 IP daily, 14 days) worked out at 43.3%.

Values taken from patent US20080081078A1, “Prevention of Cell Proliferation by Inhibiting Myosin Light Chain Kinase” (The Board of Trustees of the University of Illinois, priority 2006, published 2008).
